The text below walks through data of ChEMBL document CHEMBL1132622, “Synthesis, structure-activity relationships, and in vivo evaluations of substituted di-tert-butylphenols as a novel class of potent, selective, and orally active cyclooxygenase-2 inhibitors. 2. 1,3,4- and 1,2,4-thiadiazole series” (J Med Chem, 1999).

For test [1], the target named is T1, Prostaglandin G/H synthase 2 (Homo sapiens, UniProt P35354).
T1 sequence (P35354 whole entry): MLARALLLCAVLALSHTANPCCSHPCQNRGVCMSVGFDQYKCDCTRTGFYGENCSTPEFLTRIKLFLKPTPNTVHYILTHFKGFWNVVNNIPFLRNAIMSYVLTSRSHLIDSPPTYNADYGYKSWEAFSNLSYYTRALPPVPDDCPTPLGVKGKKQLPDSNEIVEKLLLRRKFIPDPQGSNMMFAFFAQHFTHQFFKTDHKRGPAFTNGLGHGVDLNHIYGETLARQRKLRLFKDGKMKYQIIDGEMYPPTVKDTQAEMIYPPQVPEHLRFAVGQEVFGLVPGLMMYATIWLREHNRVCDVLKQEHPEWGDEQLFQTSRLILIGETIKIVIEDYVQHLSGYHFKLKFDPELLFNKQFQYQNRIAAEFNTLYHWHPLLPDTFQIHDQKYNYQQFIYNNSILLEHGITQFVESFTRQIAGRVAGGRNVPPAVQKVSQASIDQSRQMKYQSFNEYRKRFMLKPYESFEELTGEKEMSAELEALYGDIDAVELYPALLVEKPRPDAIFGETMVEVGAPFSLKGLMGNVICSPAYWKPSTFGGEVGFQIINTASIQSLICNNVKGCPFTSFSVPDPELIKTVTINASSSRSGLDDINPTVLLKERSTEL
Nature of the test: Inhibition of recombinant human prostaglandin G/H synthase 2 (COX-2).

Test [2] concerns the target T2, Prostaglandin G/H synthase 1 (Ovis aries) (UniProt P05979).
T2 sequence (whole entry): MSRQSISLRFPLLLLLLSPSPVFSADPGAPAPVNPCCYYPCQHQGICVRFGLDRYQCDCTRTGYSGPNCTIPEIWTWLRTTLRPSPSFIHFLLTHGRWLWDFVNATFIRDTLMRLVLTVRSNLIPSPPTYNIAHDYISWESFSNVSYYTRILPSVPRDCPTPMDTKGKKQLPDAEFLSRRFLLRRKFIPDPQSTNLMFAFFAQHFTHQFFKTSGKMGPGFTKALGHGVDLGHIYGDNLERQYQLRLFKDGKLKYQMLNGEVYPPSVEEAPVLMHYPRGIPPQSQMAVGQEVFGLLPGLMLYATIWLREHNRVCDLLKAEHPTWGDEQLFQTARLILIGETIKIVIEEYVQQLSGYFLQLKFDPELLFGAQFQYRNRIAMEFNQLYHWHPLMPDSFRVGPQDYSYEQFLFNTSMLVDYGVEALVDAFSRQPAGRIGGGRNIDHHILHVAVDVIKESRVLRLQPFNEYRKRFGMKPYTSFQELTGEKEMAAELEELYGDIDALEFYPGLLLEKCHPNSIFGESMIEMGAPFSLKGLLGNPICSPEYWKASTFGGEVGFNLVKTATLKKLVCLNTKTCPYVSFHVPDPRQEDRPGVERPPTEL
Kind of test: IC50 value against ovine Prostaglandin G/H synthase 1 at 10 uM.

The target in test [3] is T3, Prostaglandin G/H synthase 2 (Mus musculus, UniProt Q05769).
T3 sequence (Q05769 whole entry): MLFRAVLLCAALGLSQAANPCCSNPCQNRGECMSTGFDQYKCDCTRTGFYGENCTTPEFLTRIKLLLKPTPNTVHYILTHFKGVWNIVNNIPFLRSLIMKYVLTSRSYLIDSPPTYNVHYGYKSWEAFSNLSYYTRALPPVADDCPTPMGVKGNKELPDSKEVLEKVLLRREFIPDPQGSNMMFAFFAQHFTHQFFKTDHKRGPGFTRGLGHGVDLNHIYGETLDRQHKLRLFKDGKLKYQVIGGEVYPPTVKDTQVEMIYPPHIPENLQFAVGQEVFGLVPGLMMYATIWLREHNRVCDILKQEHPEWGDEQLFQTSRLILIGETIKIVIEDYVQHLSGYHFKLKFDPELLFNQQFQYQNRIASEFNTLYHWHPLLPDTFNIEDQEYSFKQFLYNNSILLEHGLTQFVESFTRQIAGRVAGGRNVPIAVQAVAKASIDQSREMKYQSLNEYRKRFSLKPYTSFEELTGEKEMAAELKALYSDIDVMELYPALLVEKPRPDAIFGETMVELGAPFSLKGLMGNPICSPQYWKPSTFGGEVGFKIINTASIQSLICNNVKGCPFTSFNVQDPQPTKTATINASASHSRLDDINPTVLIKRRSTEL

Test [4] addresses Prostaglandin G/H synthase 1 (Homo sapiens, UniProt P23219). Kind of test: IC50 value against Prostaglandin G/H synthase 1 of human platelet rich plasma. In kind it is cell-free.
The species entered for test [5] is Rattus norvegicus. Nature of the test: Percentage inhibition of the prostaglandin synthesis was measured in rats. It is filed as functional.
Test [6] is filed under the species Rattus norvegicus. Nature of the test: ED50 was measured by hyperalgesia assay method. In kind it is functional.
Test [7] is filed under the species Rattus norvegicus. Nature of the test: Percentage of gastric damage was measured in rats. In kind it is functional, Stomach.
Test [8] is filed under the species Rattus norvegicus. Kind of test: Lesion frequency was measured in rats. It is filed as functional.
Test [9] deals with T4, Prostaglandin G/H synthase 1 (Ovis aries, UniProt P05979).
T4 sequence (P05979 whole entry): T2 sequence (whole entry)
Nature of the test: IC50 value against ovine Prostaglandin G/H synthase 1.

The species named for test [10] is Rattus norvegicus. Nature of the test: ED50 was measured by CFE assay method. It is filed as functional.
In test [11] the target is T3, Prostaglandin G/H synthase 2. Nature of the test: IC50 value against Prostaglandin G/H synthase 2 of murine J774A.1 cell line.
The target in test [12] is T5, Prostaglandin G/H synthase 2 (Homo sapiens) (UniProt P35354).
T5 sequence (whole entry): T1 sequence (P35354 whole entry)
Kind of test: IC50 value against recombinant human Prostaglandin G/H synthase 2 at 10 uM.

Test [13] deals with T2, Prostaglandin G/H synthase 1 (Ovis aries). Nature of the test: IC50 value against ovine Prostaglandin G/H synthase 1 at 30 uM.

Prostaglandin G/H synthase 1 (Homo sapiens, UniProt P23219), sequence (P23219 whole entry): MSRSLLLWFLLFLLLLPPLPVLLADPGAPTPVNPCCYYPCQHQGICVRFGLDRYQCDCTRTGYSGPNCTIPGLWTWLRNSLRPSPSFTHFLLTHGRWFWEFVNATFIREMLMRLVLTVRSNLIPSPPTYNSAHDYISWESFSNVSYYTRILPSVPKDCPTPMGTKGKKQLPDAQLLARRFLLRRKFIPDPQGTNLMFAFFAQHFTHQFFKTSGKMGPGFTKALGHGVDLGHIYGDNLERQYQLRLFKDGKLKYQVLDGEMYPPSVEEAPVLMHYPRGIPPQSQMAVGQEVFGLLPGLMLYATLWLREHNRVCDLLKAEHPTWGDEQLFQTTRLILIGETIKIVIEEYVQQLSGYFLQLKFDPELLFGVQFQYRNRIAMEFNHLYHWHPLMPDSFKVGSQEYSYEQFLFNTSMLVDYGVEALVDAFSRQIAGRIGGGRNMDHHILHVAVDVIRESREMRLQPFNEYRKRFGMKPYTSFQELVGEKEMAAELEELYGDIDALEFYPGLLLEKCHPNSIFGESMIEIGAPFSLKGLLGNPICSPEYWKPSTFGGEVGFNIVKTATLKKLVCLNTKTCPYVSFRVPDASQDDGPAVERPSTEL

As to `CCSc1nnc(-c2nc(C(C)(C)C)c(O)c(C(C)(C)C)n2)s1`, the figures for the IC50 in test [1], in test [3] and in test [4] were 2 µM, 0.018 µM and 0.68 µM, respectively. In [2], the inhibition is 39%.
Turning to `CC(C)(C)c1cc(-c2nsc(NC#N)n2)cc(C(C)(C)C)c1O`, the Inhibition in the test listed under Rattus norvegicus [5] stood at 87.7%. The 50% effective dose (ED50) worked out at 0.2 mg/kg in the test listed under Rattus norvegicus [6] and 5.8 mg/kg in the test filed under Rattus norvegicus [10]. The IC50 in [1] was found to be 0.047 µM; in [3], 0.026 µM; in test [9], 32 µM; in test [4], 1.2 µM. The Damaged area in the test filed under Rattus norvegicus [7] was determined as 4.91%. The Lesion frequency in the test filed under Rattus norvegicus [8] is given as 87.5%.
On to `CC(C)(C)c1cc(-c2nnc(NC#N)s2)cc(C(C)(C)C)c1O`, for which the Inhibition in the test listed under Rattus norvegicus [5] amounted to 22%. The values for the ED50 in the test filed under Rattus norvegicus [6] and in the test filed under Rattus norvegicus [10] were 1.3 mg/kg and 7.7 mg/kg, respectively. Also, the IC50 in [1] was more than 20 µM; in [9], more than 20 µM; in [4] it was 3.6 µM; in test [11], “Not Active”. In addition, the Damaged area in the test filed under Rattus norvegicus [7] is on record as 0.02%. The compound also returned a Lesion frequency in the test filed under Rattus norvegicus [8] of 12.5%.
As to `CSc1nc(-c2cc(C(C)(C)C)c(O)c(C(C)(C)C)c2)ns1`, the inhibition in test [12] turned out to be 20%; in test [2], 16%. Further, the IC50 was found to be 0.26 µM in [3] and 3.6 µM in [4].
With `COc1ccc2c(c1)c(CC(=O)O)c(C)n2C(=O)c1ccc(Cl)cc1` [INDOMETHACIN], the Inhibition in the test filed under Rattus norvegicus [5] is given as 13.36%. Besides, the ED50 in the test listed under Rattus norvegicus [6] was found to be 0.6 mg/kg; in the test filed under Rattus norvegicus [10], 1.6 mg/kg. In the test filed under Rattus norvegicus [7], this compound had a Damaged area of 0.18%. The compound further gave a Lesion frequency in the test listed under Rattus norvegicus [8] of 75%.
Turning to `CCCSc1nnc(-c2cc(C(C)(C)C)c(O)c(C(C)(C)C)c2)s1`, the IC50 in [1] was 100 µM; in test [9] it was more than 20 µM; in test [4], 4.1 µM; in test [11], “Not Active”.
On to `CC(C)(C)c1cc(-c2nnc(N=C(N)N)o2)cc(C(C)(C)C)c1O`, for which the figures for the IC50 in test [1], in [3] and in test [4] were 23 µM, 0.33 µM and 2.8 µM, respectively. This compound also displayed an inhibition in test [13] of 16%.
Turning to `CC(C)(C)c1cc(-c2nnc(N)s2)cc(C(C)(C)C)c1O`, the results for the IC50 in test [1], in [3] and in test [4] were 3.5 µM, 0.11 µM and 0.53 µM, respectively. Further, in test [13], the inhibition stood at 34%.
As to `CSc1nnc(-c2cc(C(C)C)c(O)c(C(C)C)c2)s1`, the results for the inhibition in test [12] and in [2] were 14% and 25%, respectively. The IC50 in test [3] was more than 20 µM.
As to `CC(C)(C)c1cc(-c2nnc(SCC(F)(F)F)s2)cc(C(C)(C)C)c1O`, the IC50 in [1] was more than 20 µM; in test [9] it was more than 20 µM; in test [4], more than 20 µM; in test [11] it was “Not Active”.
Regarding `COC(=O)CCSc1nnc(-c2cc(C(C)(C)C)c(O)c(C(C)(C)C)c2)s1`, the IC50 is more than 20 µM in [1], more than 20 µM in [9], 9.9 µM in [4] and “Not Active” in [11].
As to `CCSc1nnc(-c2cc(C(C)(C)C)c(O)c(C(C)(C)C)c2)s1.C[N+](C)(C)CC[O-]`, the Inhibition in the test listed under Rattus norvegicus [5] was 77.4%. Moreover, the Damaged area in the test listed under Rattus norvegicus [7] is reported as 0.05%. The same compound showed a Lesion frequency in the test filed under Rattus norvegicus [8] of 12.5%. For the same compound, it took a dose of 7.1 mg/kg to reach the 50% effect level in the test filed under Rattus norvegicus [10] (ED50).
In the case of `CC(C)(C)c1cc(-c2nnc(SCCN)s2)cc(C(C)(C)C)c1O`, the IC50 was 41 µM in test [1], 36 µM in test [9], more than 20 µM in [4] and “Not Active” in [11].
The like results for `CCCOc1nnc(-c2cc(C(C)(C)C)c(O)c(C(C)(C)C)c2)s1` were, in that order, more than 20 µM, more than 20 µM, 3.6 µM and “Not Active”.
Turning to `CS(=O)(=O)c1ccc(-n2nc(C(F)(F)F)cc2-c2ccc(F)cc2)cc1` [SC-58125], the Inhibition in the test filed under Rattus norvegicus [5] was -1.58%. Moreover, the ED50 in the test filed under Rattus norvegicus [6] was 0.3 mg/kg; in the test listed under Rattus norvegicus [10] it was more than 30 mg/kg. This compound yielded a Damaged area in the test listed under Rattus norvegicus [7] of 0%. Further, the Lesion frequency in the test filed under Rattus norvegicus [8] was found to be 0%.
For `CS(=O)(=O)Nc1ccc([N+](=O)[O-])cc1OC1CCCCC1` [NS-398], the Inhibition in the test listed under Rattus norvegicus [5] was determined as 30.7%. Moreover, the ED50 came to 7.4 mg/kg in the test filed under Rattus norvegicus [6] and 0.61 mg/kg in the test filed under Rattus norvegicus [10]. The Damaged area in the test listed under Rattus norvegicus [7] came out at 0%. Also, in the test filed under Rattus norvegicus [8], the Lesion frequency is 0%.
